Publication PMC5094572, “A β‐mannan utilization locus in Bacteroides ovatus involves a GH36 α‐galactosidase active on galactomannans” (Febs Letters, 2016)

Test system: T1, BoGal36A
T1 construct: gene Bacova_02091; predicted signal peptide removed, C-terminal His6 tag kept, pET28b+, E. coli BL21(DE3); tetramer (SEC 290 kDa)
Test: continuous assay, p-nitrophenol release at […] nm, Michaelis-Menten fit
Assay type: biochemical, Bacteroides ovatus
Details: pH 6.0, 37 °C; 50 mM sodium citrate; 0.1-5 mM substrate

Structure (SMILES): O=[N+]([O-])c1ccc(O[C@H]2O[C@H](CO)[C@H](O)[C@H](O)[C@H]2O)cc1 [pNP-α-gal]
- Km: 132 ± 20 µM
